Measurements taken from paper PMC5955586, “Transport of enniatin B and enniatin B1 across the blood-brain barrier and hints for neurotoxic effects in cerebral cells” (PLoS ONE, 2018).

Legend:
PBCEC = settings: cited from earlier work
PBCEC monolayer = test: Lucifer yellow permeability through PBCEC monolayer; format: in vitro ADME, porcine
Experimental: Before starting each experiment, the TEER values and the electrical capacitance of all cell layers were measured via cellular impedance spectroscopy (cellZscope®, nanoAnalytics, Münster, Germany). […] TEER values relate to the constitution of the tight junctions limiting paracellular transfer of compounds. In addition to the TEER, electrical capacitances (CCl) were monitored for 48 h. Cellular phospholipid bilayers act like an electrical capacitor and also contribute to the cellular impedance. Changes of the CCl value give information about the integrity of the cell monolayer. In this experiment, a parallel set up was applied. For each treatment, one triplicate of filters was monitored via cellular impedance spectroscopy over the course of 48 h using a cellZscope® device–here, the basolateral compartment was prepared with 1650 μL serum free medium and the volume in the apical compartment was filled to 760 μL (ratio 1:2.17). Another triplicate for the same incubation conditions was kept in Transwell® filter cell culture multiple well plates (12 well format) over the course of 48 h. In the multiple well plates the ratio between the apical and the basolateral compartment was 1:3, therefore the starting volume in the apical compartment is 500 μL and 1500 μL in the basolateral compartment. Here, samples for quantitation of transfer of enniatins across the barrier were drawn after 1, 2.5, 6.5, 18, 24, 28, 42 and 48 hours in this given ratio i.e. 30 μL apical and 90 μL basolateral. After 48 h, the final TEER values of the filters from the multiple well plate were measured to ensure the stability of the cell layer throughout the experiment. To double check the integrity of the barrier, lucifer yellow (LY, 50 μM), as a paracellular transfer marker, was applied. The amount of LY found in the basolateral compartment after 1 h was measured at λex = 430 nm and λ em = 540 nm.
After completion of each transport experiment, both active and passive, lucifer yellow (LY) was applied in 50 μM concentration in the apical compartments. Samples were drawn after 1 h and the amount of LY in the basolateral compartment was quantitated via external calibration. The permeability coefficients for LY through cells treated with the solvent control (ACN 0.1% and 0.02%) and through cells treated with the test compounds for the past 48 h were calculated (Table 2). The permeability coefficients range in the same order of magnitude for test substance treated cells and cells incubated with solvent, which is considerably lower than the permeability coefficients derived for ENN B and ENN B1 and indicates an intact and tight monolayer with low paracellular transfer of compounds.

Compound	Papp (PBCEC) [×10⁻⁶ cm/s]	Permeability coefficient of LY (PBCEC monolayer; after 48 h treatment with 200 nM ENN B1 in both compartments (active))	Permeability coefficient of LY (PBCEC monolayer; after 48 h treatment with 200 nM ENN B in both compartments (active))	Permeability coefficient of LY (PBCEC monolayer; after 48 h treatment with 1 μM ENN B1 apically (passive))	Permeability coefficient of LY (PBCEC monolayer; after 48 h treatment with 1 μM ENN B apically (passive))	Permeability coefficient of LY (PBCEC monolayer; solvent control ACN 0.02%)	Permeability coefficient of LY (PBCEC monolayer; solvent control ACN 0.1%)
Cn1c(=O)c2c(ncn2C)n(C)c1=O [caffeine]	15.5						
lucifer yellow [LY]		0.9 10^−6 cm/s	0.7 10^−6 cm/s	2.2 10^−6 cm/s	1.9 10^−6 cm/s	0.2 10^−6 cm/s	3.2 10^−6 cm/s
